Four molecules from US20200377510A1, “DERIVATIVES OF PIPERLONGUMINE AND USES THEREOF” (Auransa Inc., priority 2019, published 2020) can be followed below.

Data set [1] can be described thus: In vivo pharmacokinetic analysis (plasma). As to conditions: female, Balb/C, mouse, mice, read-out: Plasma half-life t1/2 (converted). The procedure:
Age 8 to 9 weeks Balb/C female mice were used for this study. The mice were maintained in a special pathogen-free environment and in disposable cages. Animal room was set to maintain temperature and relative humidity at 23° C.±3° C. and 55%±15%, respectively. Housing room was on a 12:12 light/dark cycle. Water was supplied ad libitum to each cage via water bottles. All mice were fed rodent diet with 18% protein. All animals were weighed before commencement of the study.
Compound 1 was stored at 4° C. protected from light. Dosing solutions were used within 2 hours of preparation. Compound 1 was formulated within 2 hours prior to dosing by adding the pre-calculated volume of PEG 400 (40% of total solution volume). Formulated compound 1 was vortexed and sonicated until a clear solution was formed. To this clear formulation, saline (60% of total solution volume) was added and vortexed until a clear solution was formed. The Compound 1 solution was filtered using a sterile syringe filter (0.2 μm coming filter). All Compound 1 solutions were mixed thoroughly prior to pulling up into syringes and prior to dosing. 12 mice were dosed intravenously at 5 mg/kg. 12 mice were dosed intraperitoneally at 10 mg/kg. 12 mice were dosed orally at 10 mg/kg. Animals were sacrificed for blood and organs sampling. Under isoflurane anesthesia, blood was collected via retro-orbital route. Blood samples were then centrifuged for 5 minutes at a minimum of 2,000×g. Plasma supernatant (a minimum of 50 μL or as much as feasible to collect) was collected. Plasma was stored at −80° C.
Bioanalytical analysis of plasma levels of Compound 1 was performed by mass spectrometry. Calibration standards were prepared by spiking the test compound into blank plasma. Calibrator concentrations were 5,000, 2,000, 1,000, 200, 100, 20, 10, 2 and 1 ng/mL. Calibration standard samples were processed along with the test samples.
Twenty μL aliquots of plasma test samples were treated with 100 μL of methanol: acetonitrile (5:95 v:v) containing internal standard (12.5 ng/mL verapamil). The mixtures were vortexed on a shaker for 15 minutes and subsequently centrifuged at 4,000 rpm for 15 minutes. An aliquot of 50 μL of the supernatant was mixed with 100 μL of water with 0.1% formic acid for injection to the LC/MS/MS (liquid chromatography/tandem-mass spectrometry).
The concentration of Compound 1 was determined by a UPLC-TIS-MS-MS method (ultra performance liquid chromatography—turbo ion spray—tandem mass spectrometry). The UPLC comprised a Shimadzu LC-30AD HPLC (high performance liquid chromatography). Chromatographic separation was achieved using a Waters UPLC column (Acquity UPLC BEH C18, 50×2.1 mm, 1.7 μM). Mobile phase A was water with 0.1% formic acid; mobile phase B was acetonitrile with 0.1% formic acid. The gradient program was as follows: 20% B (0-0.2 min), 20-95% B (0.2-1.2 min), 95% B (1.2-1.8 min), 95-20% B (1.81-2.2 min). The flow rate was 0.6 mL/minute. The column was maintained at 50° C.
Mass spectrometric analysis was performed using an AB Sciex API5000 with Turbo Ion Spray interface operating in a positive ionization mode. Quantification was performed using multiple reaction monitoring (MRM) method with the transitions of (m/z) 316.104→(m/z) 219.014 for Compound 1 and (m/z) 455.346→(m/z) 165 for verapamil (internal standard). Pharmacokinetics of Compound 1 ((E)-1-(3-(8-methoxy-2,3-dihydrobenzo[b][1,4]dioxin-6-yl)acryloyl)-5,6-dihydropyridin-2(1H)-one) in the plasma of the mice dosed intravenously (IV; 5 mg/kg), intraperitoneally (IP; 10 mg/kg) and orally (PO; 10 mg/kg) (n=3 per time point) is illustrated in FIG. 1.

In data set [2] the test system is multiple myeloma (MOLP-8) cells. The experiment in a line: In vitro cell viability assay (CellTiter-Glo, ATP levels). It counts as cell-based. As to conditions: Homo sapiens, MOLP-8, 168 h, 7-day incubation, average IC50. As for the experimental part: (§1) The present disclosure provides a method for inhibiting cell viability, as measured by ATP levels. The method for inhibiting cell viability is drawn to contacting various cancer cells with the compounds described herein at various concentrations. The cancer cell lines were maintained in culture conditions at 37° C. in an atmosphere of 5% CO2 in air. The cells growing in an exponential growth phase were harvested and counted for plating. Compounds were incubated in two cancer cell types representing multiple myeloma (MOLP-8) and triple negative breast cancer (DU4475). Cells were plated at an optimized cell numbers per well in 96-well plates and allowed to attach to the plates overnight at approximately 80% confluency.
(§2) After addition of compounds, plates were incubated for 7-day. At the end of incubation period on day 8, media was removed and replaced with a solution of CellTiter-Glo™ reagent (Promega®) according to protocol. Luminescence was read using an EnVision® multi-label plate reader (Perkin-Elmer®), and signal intensity was calculated relative to positive and negative control wells. Cisplatin was included as the positive control. A dose-response calculation was performed in a non-linear regression fit and by using the Hill equation to calculate a concentration-response curve and 50% inhibitory concentration (IC50) values for each compound. […]
A general note: In ATP-based viability assays light output follows the ATP content of the culture.

The test system of data set [3] is triple negative breast cancer (DU4475) cells. The data set is described as above. It counts as cell-based. As to conditions: Homo sapiens, DU-4475, 168 h, 7-day incubation, average IC50. As for the experimental part:
as §1, §2

For data set [4], the system named is collagen-induced arthritis. The experiment in a line: Collagen-induced arthritis in female Lewis rats. It counts as in vivo. As to conditions: 3 mg/kg QD PO, vs vehicle control rats.
Description: Animals were anesthetized with isoflurane and given intradermal injections of 400 μl (2×200 μl) of Porcine Type II collagen in Freund's incomplete adjuvant spread equally over two sites on the back on study days 0. On day 7, a boost injection was given; intradermal injections of 100 μl of Porcine Type II collagen in Freund's incomplete adjuvant. Collagen was prepared by making a 2 mg/ml solution in 0.01 N Acetic acid. Equal volumes of collagen and Freund's incomplete adjuvant were emulsified by hand mixing with the syringes partially submerged in ice water for 10 minutes, at which point a bead of this material will hold its form when placed in water.
On study day 6, the animals were randomized by body weight into treatment groups and dosing was initiated.
Efficacy evaluation was based on animal body weights, ankle caliper measurements, and final hind paw weights. Terminal serum was analyzed for anti-type II collagen antibody (IgG) concentrations.
The rats were weighed on day 6 for randomization, on day 9, and daily on days 11 through 17.
Caliper measurements of right and left ankle diameters were taken on study days 9 (baseline) and 11 through 17. Ankle caliper measurements were made with a digital micrometer (Digitrix II; Fowler & NSK). Baseline measurements were taken using one ankle with values rounded to one thousandth of an inch. […]

The structures appear in SMILES notation. Where two headings read alike, the source gives them in different places.

Regarding `COc1cc(/C=C/C(=O)N2CCC=CC2=O)cc2c1OCCO2` [Compound 1, (E)-1-(3-(8-methoxy-2,3-dihydrobenzo[b][1,4]dioxin-6-yl)acryloyl)-5,6-dihydropyridin-2(1H)-one], the half-life was 1.14 h in data set [1] (plasma, IP, 10 mg/kg); 1.66 h in data set [1] (plasma, IV, 5 mg/kg); 2.16 h in data set [1] (plasma, PO, 10 mg/kg).
As usually defined, the IC50 is the concentration needed to halve the response being measured. The low end stands for greater potency, the high end for weaker potency. Regarding `C/C(=C/c1ncccn1)C(=O)N1CCC=CC1=O` [Compound 49], the IC50 was found to be 6.11 µM in data set [2] and 5.06 µM in data set [3].
On to `CCS(=O)(=O)N1CC(CC#N)(n2cc(-c3ncnc4[nH]ccc34)cn2)C1` [baricitinib], for which, in data set [4], the “reduction of ankle diameter measurements AUC” value is listed as 72% and the “reduction of final hind-paw weights” value was found to be 71%.
As to `COc1cc(/C=C/C(=O)N2CCC=CC2=O)cc(OC)c1OC` [piperlongumine, 1-[(E)-3-(3,4,5-trimethoxyphenyl)prop-2-enoyl]-2,3-dihydropyridin-6-one], the half-life in data set [1] (in vivo, IP, 10 mg/kg) was 1.07 h; in data set [1] (in vivo, IV, 5 mg/kg), 1.26 h; in data set [1] (in vivo, PO, 10 mg/kg), 1.31 h.
